Laboratory results published in patent publication US8980254B2, “Formulation for oral administration of proteins” (Alvine Pharmaceuticals, Inc., priority 2008, dated 2015).
“Also recorded” adds a separate entry of the source.

Assays:
Type in all cases: biochemical, barley
[1] = target: T1, ALV001 (Hordeum vulgare, UniProt P25250); experiment: Stabilization of ALV001* in early postprandial gastric fluid by reducing agents; parameters: ALV001*(the active form of ALV001) is produced upon proteolytic cleavage of ALV001; made in house
Protocol: (§1) Frozen human postprandial gastric fluids were thawed and centrifuged at 21,000 g for 5 minutes to pellet insoluble material, and the supernatant was used for this example. Between 50 and 200 μl of gastric fluid were added to the wells of a 96-well plate and incubated at 37° C. When antioxidants were added, they were added at this step. […] At the specified sampling time, a 1.6 μl sample of gastric fluid was diluted in assay buffer to give a final volume of 280 μl, and the concentration was measured by a chromogenic activity assay using Z-Phe-Arg-p-nitroaniline (pNA) as the substrate. The method is based on the ability of pNA to absorb at 410 nm when released from the substrate. ALV001 is the proenzyme or zymogen for Endoprotease B (Isoform 2) that cleaves the C-terminal side of the arginine in the sequence Phe-Arg. Enzymatic cleavage and subsequent release of pNA may be monitored by the change in absorbance at 410 nm. To determine the reaction rate, the absorbance at 410 nm was measured every 10 seconds for 1 minute. The slope of the regression line divided by the enzyme concentration was the reported enzyme activity.
Target sequence in this assay (P25250 134-373): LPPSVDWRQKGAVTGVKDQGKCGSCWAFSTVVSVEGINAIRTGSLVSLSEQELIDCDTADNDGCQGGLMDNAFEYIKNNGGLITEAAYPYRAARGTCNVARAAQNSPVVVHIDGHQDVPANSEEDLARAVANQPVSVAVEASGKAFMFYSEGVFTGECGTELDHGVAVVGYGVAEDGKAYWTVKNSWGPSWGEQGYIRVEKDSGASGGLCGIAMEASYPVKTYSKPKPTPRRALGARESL

[2] = target: T1, ALV001; experiment: Reversal of loss of enzyme activity: ALV003 pre-incubated in 15 minute postprandial gastric fluid, then MTG added; parameters: ALV001*(the active form of ALV001) is produced upon proteolytic cleavage of ALV001; made in house; conditions: 50 mM MTG, approximately 20 minutes after addition to pre-incubated ALV003 in 15 minute postprandial gastric fluid
Target sequence in this assay (P25250 134-373): as above

[3] = target: T1, ALV001; experiment: Stabilization of ALV001 in ex vivo postprandial gastric fluid by added antioxidants/reducing/chelating agents (chromogenic activity); parameters: ALV001 is the proenzyme or zymogen for Endoprotease B (Isoform 2); made in house; conditions: for stabilization of ALV001 (FIG. 11): ALV001 at 0.12 mg/ml, 1.5-40 minutes; for stability of ALV001 in postprandial gastric fluid (FIG. 7): agent at 0.5 mM
Target sequence in this assay (P25250 29-373 limits assumed): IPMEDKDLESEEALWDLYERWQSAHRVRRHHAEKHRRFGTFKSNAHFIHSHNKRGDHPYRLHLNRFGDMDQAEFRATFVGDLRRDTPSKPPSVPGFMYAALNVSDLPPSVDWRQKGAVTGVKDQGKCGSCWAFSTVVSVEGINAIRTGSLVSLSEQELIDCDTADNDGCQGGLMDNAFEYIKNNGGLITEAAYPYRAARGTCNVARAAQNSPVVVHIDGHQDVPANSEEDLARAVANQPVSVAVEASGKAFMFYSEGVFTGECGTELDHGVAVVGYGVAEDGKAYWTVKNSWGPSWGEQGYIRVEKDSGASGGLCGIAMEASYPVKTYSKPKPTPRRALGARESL

[4] = target: T1, ALV001; experiment: ALV001 activity under simulated postprandial gastric conditions with cysteine; parameters: ALV001 is the proenzyme or zymogen for Endoprotease B (Isoform 2); made in house; conditions: gluten-free meal chewed and spit into resting gastric fluid, ALV003 and varying levels of cysteine, simulated gastric acid secretion
Protocol: A gluten-free meal was chewed and spit into resting gastric fluid. ALV003 and varying levels of cysteine were added at time 0 and the stability of ALV001 activity was tested by monitoring chromogenic enzyme activity over time. Gastric acid secretion was simulated throughout the experiment.
A gluten-free meal was chewed and spit into resting gastric fluid. ALV003 and varying levels of cysteine were added at time 0, and the stability of ALV001 activity was measured by monitoring chromogenic enzyme activity over time. Gastric acid secretion was simulated throughout the experiment.
Target sequence in this assay (P25250 29-373 limits assumed): as above

[5] = target: T1, ALV001; experiment: Stabilization of ALV001 in ex vivo postprandial gastric fluid by added antioxidants/reducing/chelating agents (chromogenic activity); parameters: ALV001 is the proenzyme or zymogen for Endoprotease B (Isoform 2); made in house; conditions: for stability of ALV001 activity with agent added (FIG. 6): 15 minute postprandial gastric fluid, 37° C., 1.5-45 minutes; for stabilization (preservation of activity) of ALV001 in ex vivo gastric fluid: summary statement, concentration not given
Protocol: as §1
Target sequence in this assay (P25250 29-373 limits assumed): as above
A control without MTG was also included.
Shown in FIG. 6, selected reducing agents were added at 5 mM to ex vivo postprandial gastric fluid that was obtained from a healthy volunteer 15 minutes after eating and was incubated at 37° C. The proenzyme ALV001 was added to the gastric fluid. Acetate buffer at pH 4.5 was used as a control, because ALV001 is fully activated under these conditions. Samples were taken to determine ALV001 activity after 1.5, 5, 10, 20, […].
Samples were taken at 1.5, 5, 10, 20, and 40 minutes.

[6] = target: T1, ALV001; experiment: ALV001 activity reconstituted in orange juice with or without sodium metabisulfite; parameters: ALV001 is the proenzyme or zymogen for Endoprotease B (Isoform 2); made in house; conditions: 3 mg/ml ALV001 in orange juice, 840 μM sodium metabisulfite
Protocol: 3 mg/ml ALV001 was reconstituted in orange juice with or without 840 μM sodium metabisulfite. Chromogenic enzyme activity was measured at the indicated timepoints to determine the relative amount of functional enzyme.
3 mg/ml ALV001 was reconstituted in orange juice with or without 840 μM sodium metabisulfite. Chromogenic enzyme activity was measured as described above, at the indicated timepoints, to determine the relative amount of functional enzyme, as shown in FIG. 13.
Target sequence in this assay (P25250 29-373 limits assumed): as above

[7] = target: T1, ALV001; experiment: Restoration of ALV001 activity by agents added after 15 minutes incubation in postprandial gastric fluid; parameters: ALV001 is the proenzyme or zymogen for Endoprotease B (Isoform 2); made in house; conditions: agent at 5 mM added after 15 minutes at 37° C. in postprandial gastric fluid; 1.5-40 minutes after addition
Protocol: ALV001 was added to postprandial gastric fluid and incubated for 15 minutes at 37° C. Reducing agents were added at 5 mM to the gastric fluid and then samples were taken to examine ALV001 activity at 1.5, 5, 10, 20, and 40 minutes after the addition of the reducing agents.
Target sequence in this assay (P25250 29-373 limits assumed): as above

Row | SMILES | stabilization of ALV001* in early postprandial gastric fluid [1] | stability of ALV001 activity with agent added (FIG. 6) ([5]; agent at 5 mM) | stabilization (preservation of activity) of ALV001 in ex vivo gastric fluid [5] | further results
1 | O[C@H](CS)[C@H](O)CS (racemic) [dithiothreitol] | demonstrated to stabilize ALV001* |  |  | 
2 | N[C@@H](CCS)C(=O)O [homocysteine] | demonstrated to stabilize ALV001* |  |  | 
3 | OCC(O)CS (centres unmarked) [MTG, monothioglycerol] |  |  |  | restoration of enzymatic activity of ALV001* (FIG. 5) [2]: nearly full enzymatic activity was restored; loss of enzymatic activity of ALV001 (FIG. 4) ([3]; 50 mM MTG, 15 minute postprandial gastric fluid): no loss; rate of loss of enzymatic activity of ALV001 (FIG. 4) ([3]; MTG 0.01 to 50 mM, 15 minute postprandial gastric fluid): decreased with increasing MTG concentrations
4 | N[C@@H](CS)C(=O)O [L-cysteine] | demonstrated to stabilize ALV001* | Substantial improvements in stability |  | stability of ALV001 activity under simulated postprandial gastric conditions (FIG. 14) [4]: stabilizes ALV001 activity
5 | Cl.O=C(O)CCP(CCC(=O)O)CCC(=O)O [TCEP, tris(2-Carboxyethyl)phosphine hydrochloride] | demonstrated to stabilize ALV001* |  |  | 
6 | OCCS [2-mercaptoethanol] | demonstrated to stabilize ALV001* |  |  | 
7 | O=C1O[C@H]([C@@H](O)CO)C(O)=C1O [ascorbic acid] | did not stabilize the enzyme | rapidly inactivated | did not stabilize | 
8 | O=S([O-])S(=O)(=O)[O-].[Na+].[Na+] [sodium metabisulfite] | demonstrated to stabilize ALV001* |  | particularly effective in stabilizing ALV001 | stability of ALV001 activity in orange juice (FIG. 13) [6]: stabilizes ALV001 activity; also recorded: increased stability; stabilization of ALV001 (FIG. 11) ([3]; agent at 25 μM, postprandial gastric fluid): considerable stabilization; stability of ALV001 ([3]; agent at 50 μM): improved stability of ALV001; stabilization of ALV001 (FIG. 11) ([3]; agent at 50 μM, postprandial gastric fluid): best stabilization; stability of ALV001 in postprandial gastric fluid (FIG. 7) [3]: demonstrated to improve the stability of ALV001
9 | O=C(O)CCCC[C@@H]1CCSS1 (racemic) [lipoic acid] | demonstrated to stabilize ALV001* |  |  | stability of ALV001 in postprandial gastric fluid (FIG. 7) ([5]; agent at 5 mM): demonstrated to improve the stability of ALV001
10 | O=S([O-])([O-])=S.[Na+].[Na+] [sodium thiosulfate] | demonstrated to stabilize ALV001* |  |  | stability of ALV001 in postprandial gastric fluid (FIG. 7) [3]: demonstrated to improve the stability of ALV001
11 | CC(=O)N[C@@H](CS)C(=O)O [N-acetylcysteine] | demonstrated to stabilize ALV001* | Substantial improvements in stability |  | restoration of ALV001 enzyme activity [7]: partially restored the enzyme activity
12 | CSCC[C@H](N)C(=O)O [L-methionine] | did not stabilize the enzyme |  | did not stabilize | 
13 | O=S([O-])[O-].[Na+].[Na+] [sodium sulfite] | demonstrated to stabilize ALV001* | most effective stabilization | particularly effective in stabilizing ALV001 | restoration of ALV001 enzyme activity [7]: partially restored the enzyme activity; concentration down to which the stabilizing effect persists ([3]; postprandial gastric fluid (FIG. 8)): 0.05 mM; stabilization of ALV001 (FIG. 8) ([3]; sodium sulfite time course, postprandial gastric fluid): particularly effective
